The source made the active and inactive calls. The rule behind the calls is not given here.
Experiments:
[1] = biological target: Protein disulfide-isomerase (Homo sapiens) (UniProt P07237); assay: Inhibition of PDI in human platelet rich plasma assessed as reduction in SFLLRN peptide-induced platelet aggregation preincubated for 30 mins followed by SFLLRN addition relative to control
[2] = organism: Mus musculus; assay: Anti-platelet activity in mouse assessed as inhibition of laser injury-induced thrombus formation by measuring reduction in platelet accumulation in cremaster arterioles by microscopic method; type: functional, organism-based

Chain of Protein disulfide-isomerase (Homo sapiens) (P07237 18-508 limits assumed): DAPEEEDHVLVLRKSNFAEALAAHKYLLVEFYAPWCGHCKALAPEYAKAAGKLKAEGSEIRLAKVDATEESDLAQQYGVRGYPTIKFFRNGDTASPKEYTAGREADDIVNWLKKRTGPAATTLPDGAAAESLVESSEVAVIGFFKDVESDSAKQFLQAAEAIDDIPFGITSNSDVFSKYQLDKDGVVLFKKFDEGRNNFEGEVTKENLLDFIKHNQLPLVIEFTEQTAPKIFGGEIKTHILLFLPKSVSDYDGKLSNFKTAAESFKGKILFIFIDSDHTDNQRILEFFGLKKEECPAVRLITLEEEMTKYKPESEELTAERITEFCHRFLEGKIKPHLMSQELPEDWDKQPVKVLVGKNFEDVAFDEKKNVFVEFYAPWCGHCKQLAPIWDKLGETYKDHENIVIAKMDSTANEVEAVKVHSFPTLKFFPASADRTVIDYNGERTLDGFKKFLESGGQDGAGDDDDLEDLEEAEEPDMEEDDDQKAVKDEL

SMILES	inhibition [1] [%]	inhibition [2]
CCOC(=O)C1(CCOc2ccccc2)CCN(Cc2ccc(O)c(Cl)c2)CC1	25 to 50	Active
CCOC(=O)C1(CCOc2ccccc2)CCN(C(=O)c2ccc(O)c(Cl)c2)CC1	100	–
CC(C)(C)OC(=O)C1(CCOc2ccccc2)CCN(Cc2ccc(O)c(Cl)c2)CC1	100	–

Reference: ChEMBL document CHEMBL4257225, “Compounds and compounds for use in methods for treating diseases or conditions mediated by protein disulfide isomerase” (2016)
